melting point | SMILES
90 to 92 °C | CCCC(CCOc1c(-c2ccc(S(C)(=O)=O)cc2)cnn(-c2ccc(F)cc2)c1=O)SC (centres undefined)
278 °C | COc1cccc(-c2c3cccc(OC(C)=O)c3c(OC(C)=O)c3c(OC(C)=O)cccc23)c1
157 to 158 °C | CN(c1ccc(Cl)cc1)S(=O)(=O)c1cccc(C(=O)Nc2ccc(Cl)cc2C#N)c1
76 to 77 °C | O=CC1c2ccccc2CCc2ccccc21
240 to 242 °C | Nc1ncccc1-c1nc2cc(F)cnc2n1-c1ccc(CC(=O)Nc2ccccc2)cc1
105 to 108 °C | CN(C)CCN(C(N)=O)c1cnccn1
71 to 73 °C | O=CC1CC1(c1ccccc1)c1ccccc1 (centres undefined)
209 °C | Cn1cc(-c2cc(-c3ccsc3)ccn2)n(-c2ccc(C(C)(C)C#N)cc2)c1=O
104 to 109 °C | CSc1nc(N)nn1C
102 to 104 °C | COC(C)(C)C(C#N)=NO
67 to 68 °C | COC(=O)Cc1c(Cl)nc(C)nc1Cl
95 to 98 °C | CN1CCC(c2cn(S(=O)(=O)c3c(F)cccc3F)c3ccc(OS(=O)(=O)c4c(F)cccc4F)cc23)CC1
150 to 151 °C | O=C(COc1ccccc1)N[C@H]1C(=O)N[C@H]1C(=O)O (relative stereo)
161 to 162 °C | COc1ccc(S(=O)(=O)NCc2ccc(O)cc2)cc1
147 to 149 °C | Cc1ccc(C2c3c(C)c(N4CCN(c5cc(C)cc(C)c5)CC4)c(C)c(C)c3OC2(C)C)cc1 (centres undefined)
210 to 214 °C | O=C(O)CC1Sc2ccc([N+](=O)[O-])cc2CN(CCc2ccccc2)C1=O (centres undefined)
127 to 128 °C | CCCc1nc2c(N)nc3cc(OCCCCCCNC(=O)c4ccc(N=[N+]=[N-])cc4O)ccc3c2s1
42 to 43 °C | Cc1cc(CCCCCOc2c(Cl)cc(C3=NCCO3)cc2Cl)on1
263 to 265 °C | CCc1nc(=O)[nH]c2cc(OC)c(OC)cc12
95 to 97 °C | CCOC(=O)c1ccc(C(CCc2cc(Cl)ccc2N2CCCCC2)C(N)=O)cc1 (centres undefined)
265 to 266 °C | CCOC(=O)c1cccc2c(=O)cc(-c3ccc(OCc4ncc5ccccc5n4)cc3)oc12
53 to 55 °C | CCc1cn2nc(C)ccc2n1
82 to 83 °C | COc1ccc(-c2ccccc2C#N)cc1
134 to 135 °C | CC(C)(C)c1ccc(Cn2ccc3ccc(-c4ccc(C(F)(F)F)cc4)cc32)cc1

melting point | SMILES
153 to 155 °C | COc1ccc(C(=O)N[C@H]2CCN(C)C[C@H]2c2ccccc2)cc1OC (relative stereo)
118 °C | CNS(=O)(=O)c1ccc(Cl)c(C)c1Cl
183 to 185 °C | COc1cc2c(c(Cl)c1Cl)C1=CC(=O)CCC1(CCCCl)C2 (centres undefined)
150 to 151 °C | Clc1ccc2nc(-c3ccccc3)oc2n1
74.5 to 76 °C | CCCOC(=O)c1cc(OC)c(OC)c(OCC)c1-c1c(C(=O)OC)cc(OC)c2c1OCO2
188 to 190 °C | O=C(Nc1cc(F)c(-c2cccnc2)c(F)c1)OCc1ccccc1
71 to 73 °C | OCC(CO)CCOc1ccccc1
220 to 222 °C | O=C(O)C1Cc2c(c(Cl)cc3c(-c4ccccc4Cl)noc23)O1 (centres undefined)
200 to 202 °C | COC1=NS(=O)(=O)N=C1OC
164 to 169 °C | Fc1ccc(OC(=S)Nc2ccc(-c3ncn(-c4ccc(OC(F)(F)F)cc4)n3)cc2)cc1
71 to 72 °C | COC1=CCC(OC)(OC)C=C1CCc1ccc(OC)cc1C
131 to 133 °C | CC(O)CN1C(=O)N(CN2C(=O)N(CC(C)O)C(=O)C2(C)C)C(C)(C)C1=O (centres undefined)
230 to 231 °C | COC(=O)c1n[nH]c2nc(N3CCN(C)CC3)ccc12
158 to 160 °C | COc1cc(C(=O)C(C#N)C#N)cc(OC)c1OC
70 to 73 °C | Cc1c(Cl)ccc2cc(C(F)(F)F)c(C(F)(F)F)nc12
148 to 151 °C | O=C(c1cc(Cl)nc(Cl)c1)n1ccnc1
170 to 174 °C | NS(=O)(=O)c1cc(CCNC(=O)/C=C/c2cccs2)ccc1OCCc1ccccc1
124 to 125 °C | CC(=O)NC1(c2ccc(CN3CCN(c4ccc(F)cc4F)CC3)cc2)CC1
111 to 114 °C | COC(=O)C(C)(C)S(=O)(=O)N1CCC(c2ccc(-c3nccs3)c(C)c2)CC1
165 to 166 °C | CCCCCCCNC(=O)Nc1ccc([N+](=O)[O-])cc1C(=O)NC1CCN(C(c2ccccc2)c2ccccc2)CC1
212 to 213 °C | CC(=O)N1c2cc(Cl)cc(Cl)c2C(=O)CC1C(=O)O (centres undefined)
217 to 219 °C | O=C(Nc1ccncc1)Nc1c(Cl)cccc1Cl
100 to 102 °C | CC(=O)Oc1ccccc1C(=O)SC(C)C(=O)NCC(=O)O (centres undefined)
106 to 111 °C | CC(Oc1ccc(C(C)(C)C)cc1C(C)(C)C)C(=O)O (centres undefined)

melting point | SMILES
203 to 204 °C | Cc1cc(=O)c(C(=O)Nc2nnc(C)s2)c(C)o1
207 °C | COc1ccc(-c2nsc3ccc([N+](=O)[O-])cc23)cc1
44 °C | CCCCCCCCCCCCCCCCCC(=O)NCC(C)(C)COC(=O)CCc1cc(C(C)(C)C)c(O)c(C(C)(C)C)c1
84.5 to 85 °C | N#Cc1snc(Cl)c1Cl
132 to 133 °C | CCOc1nn(Cc2ccc(Cl)cc2Cl)cc1CCCOc1cc(CCC(=O)O)n(-c2ccccc2)n1
195 to 198 °C | CCOc1ccccc1C(=O)Nc1ccc(C(=O)N2CCC(F)(F)/C(=C\C(=O)N(C)C)c3ccccc32)cc1
275 to 278 °C | C=CCN1CC(=O)C(C#N)=C1N
164 to 166 °C | CCCCCCCC(=O)N1CCc2nnc(NN)cc2C1
163 to 164 °C | CSc1ccc(-c2nnc(Oc3ccc(F)cc3F)cc2-c2ccc(Cl)cc2)cc1
73 to 74 °C | CCOc1nc2c(cnn2CC)nc1C#N
192 to 193 °C | CC(C)(C)C(O)Cn1c(-c2ccccc2[N+](=O)[O-])nc2ccccc21 (centres undefined)
185 to 186 °C | CC(=O)Nc1ccc(C(=O)C=CN(C)C)cc1
262 to 263 °C | CCC=Nc1cc(CO)cc(Nc2c3ccccc3nc3ccccc23)c1
88 to 90 °C | Cc1cc(C)cc(OCC(O)CCN2CCN(c3ccccc3)CC2)c1 (centres undefined)
195 °C | COc1cc(OC)c([N+](=O)[O-])nc1N
269 °C | Cc1ccc2c(c1)c(=O)n1nc(C(=O)O)cc1n2C
181 to 182 °C | NS(=O)(=O)c1cc2[nH]ccc2cc1F
104 to 110 °C | Cc1nc2c(OCc3ccccc3)nccn2c1C
176 to 178 °C | CCCCN(CCCC)c1ccc(C=Cc2ccc(C=CC3=C(C#N)C(=C(C#N)C#N)OC3(c3ccccc3)C(F)(F)F)cc2)c(OC)c1 (centres undefined)
96 to 101 °C | O=C(c1ccccc1)C1C=C(Cl)C=CC1(F)NCCO (centres undefined)
78 to 79 °C | CCOC(=O)CCCCCCCn1c(-c2ccccc2)c(-c2ccccc2)[nH]c1=O
149 °C | O=C(O)C(Cl)=C(Cl)C(=O)N(Cc1ccco1)Cc1ccco1
68 to 70 °C | Cc1ccc(C)n1-c1ccc(I)cc1F
131 to 132 °C | COc1c(C)cc(C(=O)c2ccc([N+](=O)[O-])cc2)cc1C

melting point | SMILES
216 to 217 °C | CC(=O)Nc1ccc([N+](=O)[O-])c2c(Br)ccc(C)c12
278 to 280 °C | CCS(=O)(=O)Cc1ccc(Cl)c2nc3n(c12)CCCN3c1ccc(Cl)cc1Cl
98 to 100 °C | CCC1Cc2c(C)ccc(NNC(=O)OC)c2O1 (centres undefined)
215 to 216 °C | Cc1cc(CNC(=O)c2sc(N3C[C@@H](C)N(Cc4ccc(F)cc4)C3=O)nc2C)[nH]n1
81 to 82 °C | CN(C)CCc1ccc(OCCCN2C(=O)c3ccccc3C2=O)cc1
73.5 to 75 °C | CCOCC(O)(COCC)C(Cc1cc(OC)cc(OC)c1)NC(=O)OC(C)(C)C (centres undefined)
145 to 146 °C | COC1=NC(C)=C(C(=O)OC(C)C)C(c2cccc([N+](=O)[O-])c2)N1C(=O)N(C)Cc1ccccc1 (centres undefined)
110 °C | O=C(O)CP(=O)(O)CCCCc1ccccc1
88 to 90 °C | CSc1nncc(-c2ccco2)n1
99 to 108 °C | Cc1ccc2occ(-c3ccccc3)c2c1
99 to 100 °C | CCOC(=O)CNC(=O)Oc1c(CC)n(C)ccc1=O
64 to 67 °C | O=Cc1ccccc1C(=O)c1ccccc1
147 to 149 °C | O=C(CC(CSc1nc2ccccc2s1)C(=O)NC1CCCCC1)NC1CCCCC1 (centres undefined)
170 to 173 °C | O=C(OC1CCCCC1)C(c1ccccc1)n1cnc2[nH]ncc2c1=S (centres undefined)
147 to 150 °C | CCC1CCC2C3CCC4CC(O)CCC4(C)C3C(N(C)C)CC12C (centres undefined)
104 to 106 °C | CCC1c2cc(OC)c(OC)cc2C(C=Cc2ccc(N)cc2)=NN(C(C)=O)C1C (centres undefined)
67 to 69 °C | CSc1ccc2c(c1)C(O)Cc1ccc(C)cc1O2 (centres undefined)
67 to 68 °C | CC1SC=C2c3ccccc3C=CN2C1=O (centres undefined)
190 to 191 °C | NC1=CC(=O)CC(c2ccccc2)C1 (centres undefined)
123 to 124 °C | O=C(NCc1ccccn1)c1cc(C(F)(F)F)cc(C(F)(F)F)c1
219 to 223 °C | O=C(O)Cc1c(C(=O)O)c2cc(Oc3cc(Cl)cc(Cl)c3)ccc2n1-c1ccc(OC(F)(F)F)cc1
119 to 120 °C | CCCCCC(CC(=O)Nc1cc(CBr)ccc1C(C)(C)C)c1cccc2c1OCO2 (centres undefined)
79 to 80 °C | O=C(OCc1snc(Cl)c1Cl)c1ccccc1

SMILES | melting point
CC(=Cc1ccc(N(C)C)cc1Br)[N+](=O)[O-] | 102 to 103 °C
CCCN1CCC[C@@H]2c3cccc(O)c3OC[C@H]21 (relative stereo) | 111 to 114 °C
Clc1cc(OC(Cl)(Cl)Cl)nc(Cl)n1 | 55 to 56 °C
CC1N=C(c2ccccc2F)c2cc(I)ccc2NC1=O (centres undefined) | 211 °C
O=S1(=O)c2cccc3cccc(c23)N1CCCN1CC=C(c2ccc(O)cc2)CC1 | 198 °C
CO[C@@H](C(=O)N[C@H]1CC[C@@H](OC(=O)CCc2ccccc2)CNC1=O)[C@H](O)[C@@H](O)[C@H](O)/C=C/C(C)(C)C | 75 to 77 °C
O=C1NCCCCC1Br (centres undefined) | 109 to 111 °C
O=C1c2ccccc2-n2cncc2[C@@H]2CCN12 | 195 to 197 °C
CC(=O)C1CCC2C3CCC4CC(O)C(Cl)CC4(C)C3C(=O)CC12C (centres undefined) | 185 to 189 °C

— a melting point compilation (Tetko et al.; mined from patent text by program, amines drawn as free bases though some values may be those of a salt)
